# Values joined by “and” are separate entries in the source; they are usually repeats but may differ in a detail not shown here. Equal entries are not always repeated.
# How the values were obtained:
# [1] = target: T1, dopamine transporters (DAT) (Homo sapiens, UniProt Q01959); test: PET striatal receptor occupancy at DAT, tracer 11C-PE2I; type: in vivo; conditions: following multiple doses of 60 mg, PET study in healthy males
# T1 construct: from tissue; host or cells: striatum of healthy male volunteers, in vivo PET
# T1 sequence (Q01959 whole entry): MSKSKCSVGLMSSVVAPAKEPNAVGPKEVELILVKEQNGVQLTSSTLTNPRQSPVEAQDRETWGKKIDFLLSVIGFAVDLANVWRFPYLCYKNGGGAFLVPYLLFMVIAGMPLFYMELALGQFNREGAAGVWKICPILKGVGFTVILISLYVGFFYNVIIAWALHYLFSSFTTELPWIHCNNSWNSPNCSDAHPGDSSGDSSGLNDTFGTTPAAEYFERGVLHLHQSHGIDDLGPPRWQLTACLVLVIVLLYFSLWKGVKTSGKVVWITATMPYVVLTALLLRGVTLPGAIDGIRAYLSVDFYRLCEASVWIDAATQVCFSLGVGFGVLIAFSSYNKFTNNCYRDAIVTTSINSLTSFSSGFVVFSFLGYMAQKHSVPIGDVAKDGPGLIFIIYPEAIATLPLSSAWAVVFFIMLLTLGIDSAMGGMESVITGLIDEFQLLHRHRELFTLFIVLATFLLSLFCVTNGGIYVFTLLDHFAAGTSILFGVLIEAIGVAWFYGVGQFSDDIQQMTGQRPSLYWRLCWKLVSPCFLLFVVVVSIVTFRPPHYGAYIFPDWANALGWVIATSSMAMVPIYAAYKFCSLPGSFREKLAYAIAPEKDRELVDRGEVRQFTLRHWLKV
# From the text: (§1) The PET study was a part of a strategy in previous clinical development of the compound of formula I to evaluate in healthy male volunteers with respect to safety, tolerability and pharmacokinetics as well as DAT and SERT occupancy.
# (§2) The relationship between plasma the compound of formula I concentration and SERT occupancies, using the individual values, is presented in FIG. 8 and FIG. 9. The numeric values for the individual SERT and […] occupancy and the corresponding plasma concentrations are tabulated in Example 12.
# Striatal receptor occupancy at dopamine transporters (DAT) and serotonin transporters (SERT) with plasma concentrations of Formula I at the midpoint time of the post dosing PET (positron emission tomography) scans (T=4 and 24) after once-a-day multiple doses of 3-60 mg and 10-60 mg for SERT and DAT healthy male cohorts, respectively (Tables below, RO stands for receptor occupancy). Post dosing PET scans were conducted at day 10 (4 h post last dose) and day 14 (24 h post last dose) assuming steady state conditions, using the specific DAT and SERT tracers ^11 C-PE2I and ^11 C-MADAM, respectively. For 45 mg and 60 mg cohorts, there was titration by administration of 30 mg for 3 days and then from day 4 the specified dose. […]
# [2] = Stability in human EDTA plasma (LC-MS/MS validation); type: in vitro ADME
# Method: (§3) A LC-MS/MS method was developed and validated for the quantitation of Formula I in 0.250 mL of human EDTA plasma in a total of 7 runs, out of which 1 run was rejected. The method utilized stable labeled Formula I as an internal standard. After the addition of the internal standard (equivalent to 285.4 ng/mL in human EDTA plasma) and 0.250 mL of each quality control (QC) sample and calibration standard, 0.525 mL of methyl t-butyl ether (MTBE) was added to the 96-well sample tubes. The organic layer was removed and evaporated to dryness using a liquid-liquid extraction (LLE). The residue was reconstituted and injected into the LC-MS/MS system. Chromatographic separation was achieved through gradient elution on an Acquity UPLC, BEH Shield RP18™, 50 × 2.1 mm, 1.7 µm particle size column. The mobile phase contained water, acetonitrile, ammonium formate, and formic acid. Detection was accomplished using a Sciex API 4000 tandem mass spectrometer in positive ion electrospray SRM mode. The standard curves, which ranged from 1.00 to 1000 ng/mL for Formula I, were fitted to a ⅟x2 weighted linear regression model. The intra-assay precisions, based on four levels of analytical QCs (low, mid, GM, and high), were within 4.2% CV and inter-assay precisions were within 7.2% CV for the analyte. The assay accuracy, expressed as %DEV, was within 6.4% of the nominal concentration values for the analyte. […] The LLOQ response ratio, when compared to the QC0 response ratio, was ≥ 5 in all matrix lots. The analyte was stable in human EDTA plasma for at least 24 h at room temperature, for at least 14 days at -20° C., and following at least 3 freeze- thaw cycles. The processed samples were stable for 72 hours (h) at room temperature.
# [3] = target: T2, Transporter, Norepinephrine (NET) (Homo sapiens, UniProt P23975); test: Radioligand binding, Transporter, Norepinephrine (NET) (Eurofin Discovery 204410); conditions: 100 nM compound
# T2 construct: host or cells: MDCK cells
# T2 sequence (P23975 whole entry): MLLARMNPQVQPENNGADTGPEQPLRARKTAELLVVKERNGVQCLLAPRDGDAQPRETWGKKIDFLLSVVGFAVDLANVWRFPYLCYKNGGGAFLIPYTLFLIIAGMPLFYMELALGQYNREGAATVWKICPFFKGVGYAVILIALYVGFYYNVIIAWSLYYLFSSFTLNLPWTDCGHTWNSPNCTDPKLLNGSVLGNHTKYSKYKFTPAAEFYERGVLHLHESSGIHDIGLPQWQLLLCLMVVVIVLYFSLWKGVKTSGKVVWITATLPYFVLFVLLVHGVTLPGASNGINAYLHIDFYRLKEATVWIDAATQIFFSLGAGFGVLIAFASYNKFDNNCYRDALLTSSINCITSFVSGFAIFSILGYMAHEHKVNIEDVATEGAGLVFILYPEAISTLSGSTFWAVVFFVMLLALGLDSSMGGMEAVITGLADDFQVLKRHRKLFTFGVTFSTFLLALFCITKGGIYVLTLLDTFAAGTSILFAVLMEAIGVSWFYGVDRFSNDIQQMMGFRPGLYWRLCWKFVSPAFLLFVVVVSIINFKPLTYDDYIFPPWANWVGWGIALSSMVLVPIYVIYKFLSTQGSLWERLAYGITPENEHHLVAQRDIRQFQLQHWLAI
# [4] = target: T3, serotonin transporters (SERT) (Homo sapiens, UniProt P31645); test: PET receptor occupancy at SERT, tracer 11C-MADAM; type: in vivo; conditions: for SERT RO%: healthy males
# T3 construct: from tissue; host or cells: brain (striatum, thalamus) of healthy male volunteers, in vivo PET
# T3 sequence (P31645 whole entry): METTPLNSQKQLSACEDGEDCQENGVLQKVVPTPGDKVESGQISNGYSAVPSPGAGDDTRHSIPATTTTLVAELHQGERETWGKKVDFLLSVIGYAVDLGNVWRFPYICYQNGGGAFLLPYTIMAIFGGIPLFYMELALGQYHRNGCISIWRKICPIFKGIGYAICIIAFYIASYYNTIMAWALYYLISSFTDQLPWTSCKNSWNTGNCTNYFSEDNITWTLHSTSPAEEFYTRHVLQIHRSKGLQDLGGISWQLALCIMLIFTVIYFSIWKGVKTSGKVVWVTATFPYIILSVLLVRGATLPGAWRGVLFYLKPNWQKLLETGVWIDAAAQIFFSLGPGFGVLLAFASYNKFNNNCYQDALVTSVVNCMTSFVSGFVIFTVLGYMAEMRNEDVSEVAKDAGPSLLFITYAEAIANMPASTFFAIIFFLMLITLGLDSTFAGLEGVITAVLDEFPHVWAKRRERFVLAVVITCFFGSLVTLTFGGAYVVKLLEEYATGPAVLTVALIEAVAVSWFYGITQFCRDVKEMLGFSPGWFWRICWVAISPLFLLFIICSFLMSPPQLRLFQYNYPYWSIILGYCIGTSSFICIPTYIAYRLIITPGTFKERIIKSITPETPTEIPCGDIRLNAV
# From the text: as §1, §2
# (§4) Striatal receptor occupancy at dopamine transporters (DAT) and serotonin transporters (SERT) with plasma concentrations of Formula I at the midpoint time of the post dosing PET (positron emission tomography) scans (T=4 and 24) after once-a-day multiple doses of 3-60 mg and 10-60 mg for SERT and DAT healthy male cohorts, respectively (Tables below, RO stands for receptor occupancy). Post dosing PET scans were conducted at day 10 (4 h post last dose) and day 14 (24 h post last dose) assuming steady state conditions, using the specific DAT and SERT tracers ^11 C-PE2I and ^11 C-MADAM, respectively. For 45 mg and 60 mg cohorts, there was titration by administration of 30 mg for 3 days and then from day 4 the specified dose. Representative reports on using these two tracers are Learned-Coughlin SM et al, Biol Psychiatry.2003, 54(8):800-5; Jucaite A et al, Eur J Nucl Med Mol Imaging. 2006, 33(6):657-68; and Lundberg J et al, Int J Neuropsychopharmacol. 2007, 10(6):777-85.
# [5] = Population PK model (3-compartment) on human PK data; conditions: healthy volunteers, 3-compartment population PK model
# From the text: In alternative embodiments, provided are pharmacokinetic modeling and simulation methods for Formula I, comprising using human PK data, as described sequentially in FIG. 25 to FIG. 29. A 3-compartment model best described the human PK data. Between-patient variability in healthy volunteers were 20.2%.
# [6] = 14-day once-a-day oral multiple ascending dose PK study; type: in vivo, human; design: AUC: unit not given here
# From the text: Tabulated, day-14 PK data (Cmax, Ctrough and AUC) for healthy humans in a 14-day, once-a-day oral dosing, multiple ascending dose study of compound of Formula I.
# [7] = Plasma concentrations at midpoint time of post dosing PET scans; type: in vivo, human; conditions: healthy males
# Method: as §3, §4
# [8] = target: T4, Transporter, Dopamine (DAT) (Homo sapiens, UniProt Q01959); test: Radioligand binding, Transporter, Dopamine (DAT) (Eurofin Discovery 220320); conditions: 100 nM compound
# T4 construct: host or cells: CHO-S cells
# T4 sequence (Q01959 whole entry): as the sequence (Q01959 whole entry) above
smiles,measurement,setting,value
"Clc1ccc(C2CNCc3cc(-c4ccc5ncnn5c4)ccc32)cc1Cl (stereo not drawn) [Formula I, 7-([1,2,4]triazolo[1,5-a]pyridin-6-yl)-4-(3,4-dichlorophenyl)-1,2,3,4-tetrahydroisoquinoline]",DAT occupancies,[1],≤ 60%
same,DAT occupancies,[1]; listed as formula I,up to 60%
same,stable in human EDTA plasma following freeze-thaw cycles,[2],at least 3 freeze- thaw cycles
same,stable in human EDTA plasma at -20° C.,[2]; -20° C.,at least 14 days
same,processed samples stable at room temperature,"[2]; processed (extracted) samples, room temperature",72 h
same,stable in human EDTA plasma at room temperature,[2]; room temperature,at least 24 h
same,inhibition at 0.1 µM,[3],84%
same,SERT RO%,"[4]; 10 mg once-a-day, day 10, 4 h post last dose",53% and 52%
same,SERT RO%,"[4]; 10 mg once-a-day, day 14, 24 h post last dose",47% and 48% and 51%
same,SERT RO%,"[4]; 30 mg once-a-day, day 10, 4 h post last dose",71% and 72% and 74%
same,SERT RO%,"[4]; 30 mg once-a-day, day 14, 24 h post last dose",69% and 66% and 67%
same,SERT RO%,"[4]; 45 mg once-a-day, day 10, 4 h post last dose",73% and 74% and 75%
same,SERT RO%,"[4]; 45 mg once-a-day, day 14, 24 h post last dose",73% and 75% and 78%
same,SERT RO%,"[4]; 60 mg once-a-day, day 10, 4 h post last dose",70% and 61% and 76%
same,SERT RO%,"[4]; 60 mg once-a-day, day 14, 24 h post last dose",76% and 72% and 77%
same,SERT occupancy,"[4]; multiple doses of 30-60 mg at steady state, healthy male volunteers",65-75%
same,Between-patient variability,[5],20.2%
same,"Formula I plasma concentration (ng/ml), Cmax","[6]; healthy person alpha, 3 mg daily oral, day 14, Cmax (blood draw 1-3 h)",64 ng/mL and 67 ng/mL and 63 ng/mL and 77 ng/mL and 74 ng/mL
same,Formula I plasma concentration,"[6]; healthy person alpha, 3 mg daily oral, day 14, blood draw 0 h",36 ng/mL and 40 ng/mL and 31 ng/mL and 51 ng/mL and 44 ng/mL
same,Formula I plasma concentration,"[6]; healthy person alpha, 3 mg daily oral, day 14, blood draw about 23-24 h",38 ng/mL and 42 ng/mL and 34 ng/mL and 48 ng/mL and 50 ng/mL
same,AUC,"[6]; healthy person alpha, 3 mg daily oral, day 14, printed in row of 23-24 h blood draw",369 and 414 and 338 and 525 and 439 and 374
same,"Formula I plasma concentration (ng/ml), Cmax","[6]; healthy person alpha, 10 mg daily oral, day 14, Cmax (blood draw 1-3 h)",249 ng/mL and 243 ng/mL and 285 ng/mL and 259 ng/mL and 242 ng/mL
same,Formula I plasma concentration,"[6]; healthy person alpha, 10 mg daily oral, day 14, blood draw 0 h",127 ng/mL and 134 ng/mL and 183 ng/mL and 155 ng/mL and 147 ng/mL
same,Formula I plasma concentration,"[6]; healthy person alpha, 10 mg daily oral, day 14, blood draw about 23-24 h",130 ng/mL and 140 ng/mL and 138 ng/mL and 178 ng/mL and 160 ng/mL and 162 ng/mL
same,AUC,"[6]; healthy person alpha, 10 mg daily oral, day 14, printed in row of 23-24 h blood draw",1263 and 1447 and 1302 and 1925 and 1884 and 1985
same,"Formula I plasma concentration (ng/ml), Cmax","[6]; healthy person alpha, 45 mg daily oral, day 14, Cmax (blood draw 1-2 h)",1570 ng/mL and 1394 ng/mL and 1579 ng/mL and 1348 ng/mL and 1808 ng/mL
same,Formula I plasma concentration,"[6]; healthy person alpha, 45 mg daily oral, day 14, blood draw 0 h",866 ng/mL and 695 ng/mL and 862 ng/mL and 791 ng/mL and 957 ng/mL
same,Formula I plasma concentration,"[6]; healthy person alpha, 45 mg daily oral, day 14, blood draw 23 h",890 ng/mL and 693 ng/mL and 941 ng/mL and 779 ng/mL and 924 ng/mL
same,AUC,"[6]; healthy person alpha, 45 mg daily oral, day 14, printed in row of 23 h blood draw",6276 and 8418 and 6879 and 8712 and 8687 and 9833
same,"Formula I plasma concentration (ng/ml), Cmax","[6]; healthy person beta, 45 mg daily oral, day 14, Cmax (blood draw 1-3 h)",1465 ng/mL and 1198 ng/mL and 1313 ng/mL and 1713 ng/mL and 2112 ng/mL
same,Formula I plasma concentration,"[6]; healthy person beta, 45 mg daily oral, day 14, blood draw 0 h",832 ng/mL and 732 ng/mL and 714 ng/mL and 973 ng/mL and 1274 ng/mL
same,Formula I plasma concentration,"[6]; healthy person beta, 45 mg daily oral, day 14, blood draw about 24 h",929 ng/mL and 649 ng/mL and 749 ng/mL and 1033 ng/mL and 1249 ng/mL
same,AUC,"[6]; healthy person beta, 45 mg daily oral, day 14, printed in row of 24 h blood draw",10113 and 9936 and 6959 and 8066 and 11276 and 12977
same,Formula I plasma concentration,"[7]; DAT cohort, 10 mg once-a-day, day 10, 4 h",214 ng/mL and 173 ng/mL
same,Formula I plasma concentration,"[7]; DAT cohort, 10 mg once-a-day, day 14, 24 h",149 ng/mL and 147 ng/mL
same,Formula I plasma concentration,"[7]; DAT cohort, 45 mg once-a-day, day 10, 4 h",924 ng/mL and 905 ng/mL
same,Formula I plasma concentration,"[7]; DAT cohort, 45 mg once-a-day, day 14, 24 h",668 ng/mL and 673 ng/mL
same,Formula I plasma concentration,"[7]; DAT cohort, 60 mg once-a-day, day 10, 4 h",1263 ng/mL
same,Formula I plasma concentration,"[7]; DAT cohort, 60 mg once-a-day, day 14, 24 h",991 ng/mL
same,Formula I plasma concentration,"[7]; SERT cohort, 3 mg once-a-day, day 10, 4 h",64 ng/mL and 63 ng/mL
same,Formula I plasma concentration,"[7]; SERT cohort, 3 mg once-a-day, day 14, 24 h",45 ng/mL and 42 ng/mL
same,Formula I plasma concentration,"[7]; SERT cohort, 10 mg once-a-day, day 10, 4 h",184 ng/mL and 212 ng/mL
same,Formula I plasma concentration,"[7]; SERT cohort, 10 mg once-a-day, day 14, 24 h",129 ng/mL and 156 ng/mL
same,Formula I plasma concentration,"[7]; SERT cohort, 30 mg once-a-day, day 10, 4 h",847 ng/mL and 667 ng/mL
same,Formula I plasma concentration,"[7]; SERT cohort, 30 mg once-a-day, day 14, 24 h",434 ng/mL and 567 ng/mL
same,Formula I plasma concentration,"[7]; SERT cohort, 45 mg once-a-day, day 10, 4 h",1191 ng/mL and 1105 ng/mL
same,Formula I plasma concentration,"[7]; SERT cohort, 45 mg once-a-day, day 14, 24 h",904 ng/mL and 895 ng/mL
same,inhibition at 0.1 µM,[8],92%

# From patent publication US20230084144A1, “THERAPEUTIC COMBINATIONS OF DRUGS AND METHODS OF USING THEM” (ConSynance Therapeutics, Inc., priority 2020, published 2023)
